The values that follow come from ChEMBL document CHEMBL1132034, “6-oxa isosteres of anacardic acids as potent inhibitors of bacterial histidine protein kinase (HPK)-mediated two-component regulatory systems” (Bioorg Med Chem Lett, 1999).

What all share (format): functional
In experiment [1] the test system is Bacillus subtilis. Description: Ability to inhibit autophosphorylation of KinA and/or Sp0F TCS proteins from Bacillus subtilis.
Experiment [2] has as its system Enterococcus faecium. Description: In vitro antibacterial activity against E. faecium(VR) strain, OC3312 Van R.
Experiment [3] has as its system Staphylococcus aureus. Description: In vitro antibacterial activity against Staphylococcus aureus strain, ATCC 29213.
For experiment [4], the system named is Staphylococcus aureus. Description: In vitro antibacterial activity against methicillin resistant Staphylococcus aureus (MRSA) strain, OC2089.
Experiment [5] has as its system Escherichia coli. Description: Ability to inhibit autophosphorylation of NR11 and/or transphosphorylation of NR1 TCS proteins from Escherichia coli.
The subject of experiment [6] is Enterococcus faecalis. Description: In vitro antibacterial activity against Enterococcus faecalis strain, OC3041.

≈ marks a conversion by molar mass, not a printed value. Some results are limits rather than exact numbers.

For `CCCCCCCCCCCCCCCCCCCCOc1cccc(O)c1C(=O)O`, the IC50 in experiment [1] and in experiment [5] was over 500 µM throughout. Besides, the MIC in experiment [2], in experiment [3] and in experiment [4] was over 128 µg/mL in each case.

As for `CCCCCCCCCCCCCCOc1ccccc1C(=O)O`, the IC50 (commonly the midpoint of a concentration-inhibition curve) in experiment [1] was over 500 µM; in experiment [5], 89 µM.

With `CCCCCCCCCCCCCCOc1ccccc1C(=O)OC`, the IC50 in experiment [1] and in experiment [5] was over 500 µM each time.

Turning to `O=C(O)c1c(O)cccc1OCCCCCc1ccccc1`, the MIC – broadly, the lowest concentration found to suppress growth – came out at 128 µg/mL (≈ 426 µM) in experiment [6], 128 µg/mL (≈ 426 µM) in experiment [2], 64 µg/mL (≈ 213 µM) in experiment [3] and 64 µg/mL (≈ 213 µM) in experiment [4]. Moreover, the IC50 in experiment [1] is 380 µM; in experiment [5], over 500 µM.

In the case of `CCCCCCCCCCCOc1cccc(O)c1C(=O)O`, the MIC in experiment [6] worked out at 16 µg/mL (≈ 51.9 µM); in experiment [2] it was 16 µg/mL (≈ 51.9 µM); in experiment [3] it was 8 µg/mL (≈ 25.9 µM); in experiment [4], 16 µg/mL (≈ 51.9 µM). The IC50 stood at 25 µM in experiment [1] and 44 µM in experiment [5].

With `O=C(O)c1c(O)cccc1OCCC(c1ccccc1)(c1ccccc1)c1ccccc1`, the MIC worked out at 16 µg/mL (≈ 37.7 µM) in experiment [6], 16 µg/mL (≈ 37.7 µM) in experiment [2], 4 µg/mL (≈ 9.42 µM) in experiment [3] and 8 µg/mL (≈ 18.8 µM) in experiment [4]. Also, the IC50 in experiment [1] is 85 µM; in experiment [5], 63 µM.

With `CCCCCCCCOc1cccc(O)c1C(=O)O`, the MIC worked out at 128 µg/mL (≈ 481 µM) in experiment [6], 128 µg/mL (≈ 481 µM) in experiment [2], 64 µg/mL (≈ 240 µM) in experiment [3] and 64 µg/mL (≈ 240 µM) in experiment [4]. The IC50 in experiment [1] is 190 µM; in experiment [5], over 500 µM.

For the compound `CCCCCCCCCCCCOc1cccc(O)c1C(=O)OC`, the IC50 in experiment [1] and in experiment [5] was over 500 µM throughout.

For the compound `O=C(O)c1c(O)cccc1OCCCc1ccccc1`, the MIC in experiment [6], in experiment [2], in experiment [3] and in experiment [4] was over 128 µg/mL in each case. Moreover, the half-maximal inhibitory concentration (IC50) in experiment [1] and in experiment [5] was over 500 µM in each case.

In the case of `CCCCCCCCCCCCCCCc1cccc(O)c1`, the IC50 in experiment [1] was over 500 µM.

For `CCCCCCCCCCCCCCOc1cccc(O)c1C(=O)O`, the MIC in experiment [6] is 4 µg/mL (≈ 11.4 µM); in experiment [2], 4 µg/mL (≈ 11.4 µM); in experiment [3], over 64 µg/mL; in experiment [4], over 32 µg/mL. Also, the figures for the IC50 in experiment [1] and in experiment [5] were 2.2 µM and 5 µM, respectively.

In the case of `CCCCCCCCCCCCCCCCOc1cccc(O)c1C(=O)O`, the MIC in experiment [6] was 8 µg/mL (≈ 21.1 µM); in experiment [2], 8 µg/mL (≈ 21.1 µM); in experiment [3], over 128 µg/mL; in experiment [4], 128 µg/mL (≈ 338 µM). The IC50 in experiment [1] is 3 µM; in experiment [5] it was 1.5 µM.

Consider `CC/C=C\CCCCCCCCCCOc1cccc(O)c1C(=O)O`, for which the MIC in experiment [6] was determined as 16 µg/mL (≈ 45.9 µM); in experiment [2], 16 µg/mL (≈ 45.9 µM); in experiment [3], 32 µg/mL (≈ 91.8 µM); in experiment [4], 32 µg/mL (≈ 91.8 µM). Besides, the IC50 in experiment [1] is 8 µM; in experiment [5], 7.8 µM.

With `CCCCCCCCCCCCOc1cccc(O)c1C(=O)O`, the minimum inhibitory concentration (MIC) in experiment [6], in experiment [2], in experiment [3] and in experiment [4] was 8 µg/mL (≈ 24.8 µM) in each case. Besides, the IC50 was found to be 4.4 µM in experiment [1] and 17 µM in experiment [5].

Consider `CCCCCCCCCCCCCCOc1cccc(O)c1C(=O)OC`, for which the IC50 in experiment [1] and in experiment [5] was over 500 µM each time.

Regarding `CCCCCCCCCCCCCCCCCCOc1cccc(O)c1C(=O)O`, the values for the IC50 in experiment [1] and in experiment [5] were 63 µM and 130 µM, respectively. Also, the MIC in experiment [2], in experiment [3] and in experiment [4] was 128 µg/mL (≈ 315 µM) throughout.

The compound `CCCCCCCCCCCCCCCc1cc(O)cc(O)c1` [CARDOL] had an IC50 in experiment [1] of 235 µM.
